Active and inactive are the calls of the source. The calls are words filed in the database; no cut-off is given here.
Experiments:
Cathepsin B [1] = target: T1, Cathepsin B (Homo sapiens, UniProt P07858); experiment: Inhibition of human cathepsin B at 20 uM using Cbz-Phe-Arg-AMC as substrate relative to control
Cathepsin B [2] = target: T1, Cathepsin B; experiment: Inhibition of human cathepsin B using Cbz-Phe-Arg-AMC as substrate
Procathepsin L [3] = target: T2, Procathepsin L (Homo sapiens, UniProt P07711); experiment: Inhibition of human cathepsin L at 20 uM using Cbz-Phe-Arg-AMC as substrate relative to control
Target sequence in this assay (P07711 114-333 limits assumed): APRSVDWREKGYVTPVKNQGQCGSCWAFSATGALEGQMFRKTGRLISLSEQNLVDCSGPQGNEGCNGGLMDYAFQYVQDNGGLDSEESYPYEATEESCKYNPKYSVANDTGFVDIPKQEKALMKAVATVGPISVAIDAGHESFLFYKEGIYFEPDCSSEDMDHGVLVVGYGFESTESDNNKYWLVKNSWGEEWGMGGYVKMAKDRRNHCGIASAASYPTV

Procathepsin L [4] = target: T2, Procathepsin L; experiment: Inhibition of human cathepsin L using Cbz-Phe-Arg-AMC as substrate
Target sequence in this assay (P07711 whole entry): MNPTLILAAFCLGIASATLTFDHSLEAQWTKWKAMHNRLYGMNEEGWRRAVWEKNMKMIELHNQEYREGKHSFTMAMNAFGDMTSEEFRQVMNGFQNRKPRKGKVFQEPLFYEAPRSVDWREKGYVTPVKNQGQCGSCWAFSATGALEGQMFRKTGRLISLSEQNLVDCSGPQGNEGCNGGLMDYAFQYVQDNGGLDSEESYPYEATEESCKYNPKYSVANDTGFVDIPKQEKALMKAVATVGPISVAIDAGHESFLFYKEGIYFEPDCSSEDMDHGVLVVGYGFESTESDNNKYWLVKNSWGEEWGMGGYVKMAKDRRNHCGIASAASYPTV

[5] = target: Rhodesain (Trypanosoma brucei rhodesiense) (UniProt Q95PM0); experiment: Inhibition of Trypanosoma brucei rhodesiense rhodesain at 20 uM using Cbz-Phe-Arg-AMC as substrate measured for 30 mins by fluorescence method relative to control
Rhodesain (Trypanosoma brucei rhodesiense), sequence (Q95PM0 1-450): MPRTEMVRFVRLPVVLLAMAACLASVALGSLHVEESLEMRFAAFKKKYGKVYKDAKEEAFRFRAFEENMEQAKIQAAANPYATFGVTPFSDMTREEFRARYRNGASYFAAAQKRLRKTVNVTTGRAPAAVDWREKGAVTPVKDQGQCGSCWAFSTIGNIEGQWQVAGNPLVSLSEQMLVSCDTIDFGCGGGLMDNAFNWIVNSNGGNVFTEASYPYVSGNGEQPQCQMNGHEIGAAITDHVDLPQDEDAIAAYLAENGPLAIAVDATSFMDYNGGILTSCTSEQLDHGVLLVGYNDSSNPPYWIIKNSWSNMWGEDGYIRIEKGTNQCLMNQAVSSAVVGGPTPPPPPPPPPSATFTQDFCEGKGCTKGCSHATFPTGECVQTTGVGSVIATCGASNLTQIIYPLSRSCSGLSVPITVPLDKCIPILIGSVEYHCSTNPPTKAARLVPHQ

Rhodesain = Rhodesain (Trypanosoma brucei rhodesiense, UniProt Q95PM0); experiment: Inhibition of Trypanosoma brucei rhodesiense rhodesain using Cbz-Phe-Arg-AMC as substrate measured for 30 mins by fluorescence method
Rhodesain, sequence (Q95PM0 whole entry): as the sequence (Q95PM0 1-450) above

Cruzipain = Cruzipain (Trypanosoma cruzi, UniProt P25779); experiment: Inhibition of Trypanosoma cruzi cruzain
Cruzipain, sequence (P25779 whole entry): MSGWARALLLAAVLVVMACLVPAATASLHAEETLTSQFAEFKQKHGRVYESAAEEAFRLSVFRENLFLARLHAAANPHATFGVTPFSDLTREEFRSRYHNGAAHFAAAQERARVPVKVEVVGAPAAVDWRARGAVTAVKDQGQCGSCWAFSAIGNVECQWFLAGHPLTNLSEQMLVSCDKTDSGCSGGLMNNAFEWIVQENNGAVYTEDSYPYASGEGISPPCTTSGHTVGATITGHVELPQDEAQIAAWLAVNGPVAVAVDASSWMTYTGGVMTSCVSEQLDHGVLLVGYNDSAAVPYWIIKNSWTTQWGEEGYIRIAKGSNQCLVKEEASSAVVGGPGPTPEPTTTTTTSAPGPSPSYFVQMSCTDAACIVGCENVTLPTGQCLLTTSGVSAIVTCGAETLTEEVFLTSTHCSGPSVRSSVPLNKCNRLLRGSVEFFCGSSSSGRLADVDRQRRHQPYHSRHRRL

[6] = target: Cruzipain (Trypanosoma cruzi) (UniProt P25779); experiment: Inhibition of Trypanosoma cruzi cruzain assessed as second-order rate constant
Cruzipain (Trypanosoma cruzi), sequence (P25779 123-467 limits assumed): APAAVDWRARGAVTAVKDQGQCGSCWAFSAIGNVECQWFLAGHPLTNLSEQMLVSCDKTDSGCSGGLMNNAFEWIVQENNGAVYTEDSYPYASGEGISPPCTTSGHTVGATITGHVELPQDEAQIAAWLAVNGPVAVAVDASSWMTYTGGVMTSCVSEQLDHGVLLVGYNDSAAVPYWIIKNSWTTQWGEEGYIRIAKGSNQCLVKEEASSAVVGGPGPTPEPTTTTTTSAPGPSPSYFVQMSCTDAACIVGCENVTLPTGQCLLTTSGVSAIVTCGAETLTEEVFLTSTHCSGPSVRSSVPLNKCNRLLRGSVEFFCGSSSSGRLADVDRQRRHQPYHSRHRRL

[7] = target: T3, Falcipain 2 (Plasmodium falciparum) (UniProt Q9N6S8); experiment: Reversible inhibition of Plasmodium falciparum falcipain-2 using Cbz-Phe-Arg-AMC as substrate pretreated for 30 mins followed by substrate addition and measured for 30 mins by dialysis method
T3 sequence (whole entry): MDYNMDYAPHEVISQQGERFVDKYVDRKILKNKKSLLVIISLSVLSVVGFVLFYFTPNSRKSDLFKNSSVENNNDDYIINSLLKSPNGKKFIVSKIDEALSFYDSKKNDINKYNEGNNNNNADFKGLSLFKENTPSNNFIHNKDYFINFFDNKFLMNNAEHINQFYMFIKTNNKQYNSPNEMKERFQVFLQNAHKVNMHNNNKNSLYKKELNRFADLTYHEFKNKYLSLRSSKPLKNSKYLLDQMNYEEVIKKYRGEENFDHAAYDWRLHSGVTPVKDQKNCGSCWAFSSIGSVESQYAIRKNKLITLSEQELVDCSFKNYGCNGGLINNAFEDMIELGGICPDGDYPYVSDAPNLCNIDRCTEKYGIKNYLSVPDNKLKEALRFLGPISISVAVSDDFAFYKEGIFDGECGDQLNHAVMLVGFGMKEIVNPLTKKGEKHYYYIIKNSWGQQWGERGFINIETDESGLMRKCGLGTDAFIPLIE

[8] = target: Rhodesain (Trypanosoma brucei rhodesiense) (UniProt Q95PM0); experiment: Reversible inhibition of Trypanosoma brucei rhodesiense rhodesain using Cbz-Phe-Arg-AMC as substrate pretreated for 30 mins followed by substrate addition and measured for 30 mins by dialysis method
[9] = target: Cruzipain (Trypanosoma cruzi) (UniProt P25779); experiment: Reversible inhibition of Trypanosoma cruzi cruzain pretreated for 30 mins followed by substrate addition and measured for 30 mins by dialysis method
[10] = target: T3, Falcipain 2 (Plasmodium falciparum); experiment: Irreversible inhibition of Plasmodium falciparum falcipain-2 using Cbz-Phe-Arg-AMC as substrate pretreated for 30 mins followed by substrate addition and measured for 30 mins by dialysis method
[11] = target: Rhodesain (Trypanosoma brucei rhodesiense) (UniProt Q95PM0); experiment: Irreversible inhibition of Trypanosoma brucei rhodesiense rhodesain using Cbz-Phe-Arg-AMC as substrate pretreated for 30 mins followed by substrate addition and measured for 30 mins by dialysis method
[12] = target: Cruzipain (Trypanosoma cruzi) (UniProt P25779); experiment: Irreversible inhibition of Trypanosoma cruzi cruzain pretreated for 30 mins followed by substrate addition and measured for 30 mins by dialysis method
Cathepsin B [13] = target: T1, Cathepsin B; experiment: Inhibition of human cathepsin B assessed as second order rate constant using Cbz-Phe-Arg-AMC as substrate
Procathepsin L [14] = target: T2, Procathepsin L; experiment: Inhibition of human cathepsin L assessed as second order rate constant using Cbz-Phe-Arg-AMC as substrate
Target sequence in this assay (P07711 114-333 limits assumed): as the sequence (P07711 114-333 limits assumed) above

[15] = target: T3, Falcipain 2 (Plasmodium falciparum); experiment: Inhibition of Plasmodium falciparum falcipain-2 at 20 uM using Cbz-Phe-Arg-AMC as substrate measured for 15 mins by spectrofluorimetric method relative to control
Falcipain 2 = target: T4, Falcipain 2 (Plasmodium falciparum, UniProt Q9N6S8); experiment: Inhibition of Plasmodium falciparum falcipain-2 using Cbz-Phe-Arg-AMC as substrate measured for 15 mins by spectrofluorimetric method
T4 sequence (Q9N6S8 whole entry): T3 sequence (whole entry)

[16] = target: T3, Falcipain 2 (Plasmodium falciparum); experiment: Inhibition of Plasmodium falciparum falcipain-2 assessed as second-order rate constant using Cbz-Phe-Arg-AMC as substrate measured for 15 mins by spectrofluorimetric method
[17] = target: Rhodesain (Trypanosoma brucei rhodesiense) (UniProt Q95PM0); experiment: Inhibition of Trypanosoma brucei rhodesiense rhodesain assessed as second-order rate constant using Cbz-Phe-Arg-AMC as substrate measured for 30 mins by fluorescence method
[18] = target: Cruzipain (Trypanosoma cruzi) (UniProt P25779); experiment: Inhibition of Trypanosoma cruzi cruzain at 20 uM relative to control
[19] = system: Trypanosoma brucei rhodesiense; experiment: Antiprotozoal activity against patient derived Trypanosoma brucei rhodesiense STIB 900 bloodstream form after 70 hrs by Alamar Blue assay; format: functional, organism-based; conditions: STIB 900, 70 h
Plasmodium falciparum = experiment: Antimalarial activity against erythrocytic stage of synchronized Plasmodium falciparum Dd2 after 48 hrs by Picogreen dye based fluorescence assay; format: functional, organism-based; conditions: Dd2, 48 h
Trypanosoma cruzi = experiment: Antitrypanosomal activity against Trypanosoma cruzi Tulahuen strain C2C4 amastigote forms harboring LacZ infected in rat L6 cells after 96 hrs by CPRG/Nonidet reagent based photometric method; format: functional, organism-based; conditions: Tulahuen strain C2C4, L6, 96 h
Leishmania donovani = experiment: Antileishmanial activity against Leishmania donovani MHOM/ET/67/L82 axenic amastigotes after 70 hrs by alamar blue staining based fluorescence assay; format: functional, organism-based; conditions: MHOM/ET/67/L82, 70 h
[20] = Cytotoxicity against human HepG2 cells assessed as cell viability at 1 uM measured after 24 hrs by spectrophotometric method relative to control; format: cell-based; conditions: read-out: Activity

In the case of `CCOC(=O)/C=C/C=C/C(=O)[C@H](CCc1ccccc1)NC(=O)[C@H](Cc1ccccc1)NC(=O)N1CCOCC1`, the inhibition (Cathepsin B [1]) is reported as 90%, the IC50 (Cathepsin B [2]) is reported as 2.25 µM and the Ki (Cathepsin B [2]) is reported as 1.4 µM. The inhibition (Procathepsin L [3]) was 99%, the IC50 (Procathepsin L [4]) was 1.49 µM and the Ki (Procathepsin L [4]) was 780 µM. It also gave an inhibition [5] of 98%, an IC50 (Rhodesain) of 0.56 µM and an IC50 (Cruzipain) of over 2 µM. For the same compound, the K [6] was 0.56 M⁻¹ s⁻¹, the inhibition [7] was “Active” and the inhibition [8] was “Active”. The inhibition [9] was “Active”, the inhibition [10] was “Active” and the inhibition [11] was “Active”. For the same compound, the inhibition [12] was “Active”.

Work on `CCOC(=O)/C=C/C(=O)[C@H](CCc1ccccc1)NC(=O)[C@H](Cc1ccccc1)NC(=O)OCc1ccccc1` yielded an inhibition (Cathepsin B [1]) of 100%, a K (Cathepsin B [13]) of 45500 M⁻¹ s⁻¹ and an inhibition (Procathepsin L [3]) of 100%. The K (Procathepsin L [14]) was 45300 M⁻¹ s⁻¹, the inhibition [15] was 100% and the IC50 (Falcipain 2) was 0.06 µM. It also gave a K [16] of 17100 M⁻¹ s⁻¹, an inhibition [5] of 100% and an IC50 (Rhodesain) of 0.03 µM. The K [17] was 1.27e+06 M⁻¹ s⁻¹, the inhibition [18] was 99% and the IC50 [19] was 0.93 µM. The IC50 (Plasmodium falciparum) was 16.1 µM, the IC50 (Trypanosoma cruzi) was 20.1 µM and the IC50 (Leishmania donovani) was 12.6 µM. For the same compound, the viability at 24 h, 1 µM [20] was 100%.

— ChEMBL document CHEMBL4229471, “Antiprotozoal and cysteine proteases inhibitory activity of dipeptidyl enoates” (Bioorg Med Chem, 2018)
